# Measurements: article PMC10447463, “Data-mining unveils structure–property–activity correlation of viral infectivity enhancing self-assembling peptides” (Nature Communications, 2023)
# Where two headings read alike, the source gives them in different places.
# Assays:
# [1] = test system: HIV-1 infection of TZM-bl cells; assay: HIV-1 infectivity enhancement assay, β-galactosidase luminescence; assay type: cell-based; settings: for Rel-EFC: infection relative to EF-C (QCKIKQIINMWQ = 1); for Log10 Infection Rel EFC: log10 of infection relative to EF-C; for Log Infectivity: Log10 infection relative to EF-C, asymmetric std dev errors; for Log10 Infection Rel EF-C: HIV-1 infection of TZM-bl cells; for Abs. Inf.: β-galactosidase luminescence; for Log10 of Rel to EFC (Feb2021): Log10 of infection relative to EF-C, all peptides of FigS16
# [2] = β-sheet content by ATR-FT-IR; assay type: physicochemical; settings: for b -sheet / %: Fig. S7 panel A, β-sheet content by ATR-FT-IR
# How it was run: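 ATR FT-IR, diamond crystal, 64 scans, 2 cm^-1, on freeze-dried 1 mg/mL PNF; β-sheet per prior calculation. Fluorescamine CR: 3 kDa filter, DMSO redissolution, 20 min RT, ex 365/em 470 nm; values as n-fold enhancement over DMSO (set to 1).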
# [3] = Zeta-potential measurement; assay type: physicochemical
# How it was run: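 Aggregates: 1 mg/mL peptide, PBS pH 7.4, 1 d RT; dilute in KCl (1 mM, aq); measure mobility → zeta via Smoluchowski.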
# [4] = Turbidity, derived count rate of scattered light; assay type: physicochemical; settings: for Count Rate / kcps: derived count rate of scattered light at 633 nm, 173°, from zeta-potential measurement, 0.1 mg/mL in 1 mM KCl after 1 d at 1 mg/mL in PBS, turbidity / microscopic aggregation, mean of triplicate
# How it was run: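 Samples: 1 mg/mL in PBS pH 7.4 (from DMSO), 1 d at RT, then diluted in 1 mM KCl immediately before measurement. Triplicates, two independent runs averaged.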
# [5] = Turbidity, derived count rate of scattered light; assay type: physicochemical; settings: for Count Rate: derived count rate of scattered light (turbidity); for Log10 Count Rate: turbidity, derived count rate of scattered light, data of Figure 2D
# [6] = Fig. S7 panel A (plotted against β-sheet content), TZM-bl cells
# [7] = Fig. S7 panel B (plotted against CR), rounded to two decimals, TZM-bl cells
# [8] = Log10 of infection rate relative to EF-C, Figure 3A source data
# [9] = infection rate relative to EF-C, log10, data of Figure 2D
# [10] = infection rate relative to EF-C, log10, source data of Figure 2C
# [11] = zeta-potential of peptide, source data of Figure 2C
# [12] = zeta-potential of the peptide assemblies, mean, Figure 3A source data
# [13] = Log10 of derived count rate of scattered light (turbidity)
# [14] = turbidity, Log10 of derived count rate of scattered light, Figure 3A source data
# [15] = zeta potential of peptide assemblies
# [16] = log10 of derived count rate of scattered light (turbidity)
Substance,Rel-EFC ([1]; 1.3 µM peptide),Log10 Infection Rel EFC ([1]; 1.3 µM peptide),"Log Infectivity [1, 6]","Log Infectivity [1, 7]","Log10 Infection Rel EF-C [1, 8]","Log10 Infection Rel EF-C [1, 9]","Log10 Infection Rel EF-C [1, 10]",b -sheet / % [2] [%],Zeta-Pot. [3],"Zeta-Potential / mV [3, 11] [mV]","Zeta-Potential / mV [3, 12] [mV]","Log10 Count Rate [4, 13]",Count Rate / kcps [4] [kcps],"Log10 Count Rate [4, 14]",Count Rate [5],Log10 Count Rate [5],"Zeta-Pot. [3, 15]","Log10 Count Rate [4, 16]",Log10 of Rel to EFC (Feb2021) [1],also measured
CKAKAQANM,"0,03","-1,5",-1.504,-1.5,-1.5,-1.504,-1.504,34.22,-7.773,-4.618,-7.77,2.317,207,2.317,207.3,2.317,,,,"Inf. rel. EF-C ([1]; HIV-1 infection relative to EF-C, Fig 23 plot, panels A and B, mean of 3 values): 0.01839; Inf. rel. EF-C ([1]; HIV-1 infection relative to EF-C, Fig 23 plot, single data point, replicate 1): 0.01398; Inf. rel. EF-C ([1]; HIV-1 infection relative to EF-C, Fig 23 plot, single data point, replicate 2): 0.02152; Inf. rel. EF-C ([1]; HIV-1 infection relative to EF-C, Fig 23 plot, single data point, replicate 3): 0.01966; Abs. Inf. / RLU s-1 ([1]; absolute infection rate, peptide 1.3 µM on cells, virus preincubated 10 min with fibrils, read 3 days post infection, mean of triplicate): 430 RLU s-1; Abs. Inf. ([1]; absolute infection signal, HIV-1 on TZM-bl cells): 430; Log10 Inf. rel. to EF-C ([1]; log10 of HIV-1 infection of TZM-bl cells relative to EF-C (EF-C = 0)): -1.504; Inf. rel. EF-C ([1]; n-fold infection vs virus only, relative to that of EF-C, 1.3 µM peptide): 0.03; ß-sheet / % ([2]; ATR-FT-IR of lyophilised 1 mg/mL PNF solution, peak integral ratio 1625-1635 cm-1, measured once): 34%; Zeta pot. / mV ([3]; 1 mg/mL in PBS pH 7.4 from 10 mg/mL DMSO stock, 1 d RT, 60 µL diluted in 600 µL 1 mM KCl, Zetasizer Nano ZS, Smoluchowski, mean of triplicate): -7.8 mV; Log10 Count Rate ([4]; logarithm of count rate in kcps): 2.3; Log10 Count Rate ([4]; turbidity, log10 of derived count rate of scattered light): 2.317"
KLKLKLQL,"0,1","-1,01",-1.009,,-1.01,-1.009,-1.009,42.3363,,8.477,8.39,1.632,43,1.632,42.87,1.632,8.39,1.632,,
RGDCKFKFQF,"0,15","-0,82",-0.8186,-0.82,-0.82,-0.8186,-0.8186,46.68,,16.37,13.87,3.1264,1338,3.1264,1338,3.1264,13.87,3.1264,-0.82,
KIKIQIW,"0,14","-0,85",-0.8533,,-0.85,-0.8533,-0.8533,49.1721,12.5,11.255,12.5,2.161,145,2.161,144.9,2.161,,2.161,-0.85,"Abs. Inf. ([1]; absolute HIV-1 infection signal, TZM-bl cells): 4280"
